Test results taken from the kinase profiling compilation of Christmann-Franck et al. (2016).

Tests used:
Assay in all cases: radiometric filter-binding kinase assay, Kinase HotSpot
Settings in all cases: compound 0.5 µM; ATP 10 µM
ABL1 (human) = ABL1 (human) (UniProt P00519)
AURKA (human) = AURKA (human) (UniProt O14965)
CAMK4 (human) = CAMK4 (human) (UniProt Q16566)
CAMKK1 (human) = CAMKK1 (human) (UniProt Q8N5S9)
CDK1 CCNA2 (human) = CDK1 CCNA2 (human) (UniProt P06493+P20248)
CDK5 CDK5R1 p25 (human) = CDK5 CDK5R1 p25 (human) (UniProt Q00535+Q15078)
CHEK2 (human) = CHEK2 (human) (UniProt O96017)
CSNK1G3 (human) = CSNK1G3 (human) (UniProt Q9Y6M4)
DAPK3 (human) = DAPK3 (human) (UniProt O43293)
DYRK1A (human) = DYRK1A (human) (UniProt Q13627)
EPHA1 (human) = EPHA1 (human) (UniProt P21709)
EPHA3 (human) = EPHA3 (human) (UniProt P29320)
FGFR3 (human) = FGFR3 (human) (UniProt P22607)
FLT1 (human) = FLT1 (human) (UniProt P17948)
FLT3 (human) = FLT3 (human) (UniProt P36888)
FRK (human) = FRK (human) (UniProt P42685)
FRK (human), sequence (P42685 whole entry, looked up): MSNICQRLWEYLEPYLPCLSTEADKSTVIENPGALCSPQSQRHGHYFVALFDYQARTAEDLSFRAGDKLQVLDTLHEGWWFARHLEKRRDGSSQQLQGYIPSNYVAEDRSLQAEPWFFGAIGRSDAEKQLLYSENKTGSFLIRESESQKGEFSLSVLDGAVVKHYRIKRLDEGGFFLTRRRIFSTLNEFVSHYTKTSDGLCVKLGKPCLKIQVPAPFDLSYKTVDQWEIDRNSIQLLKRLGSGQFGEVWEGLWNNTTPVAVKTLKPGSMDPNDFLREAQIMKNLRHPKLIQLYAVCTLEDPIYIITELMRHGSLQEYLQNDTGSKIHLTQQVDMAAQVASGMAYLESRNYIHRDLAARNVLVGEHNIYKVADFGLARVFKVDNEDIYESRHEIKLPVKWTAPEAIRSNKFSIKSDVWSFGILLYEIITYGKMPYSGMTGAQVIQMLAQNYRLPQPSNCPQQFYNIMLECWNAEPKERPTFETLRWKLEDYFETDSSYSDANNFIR

GRK4 (human) = GRK4 (human) (UniProt P32298)
GRK5 (human) = GRK5 (human) (UniProt P34947)
GSK3A (human) = GSK3A (human) (UniProt P49840)
IKBKE (human) = IKBKE (human) (UniProt Q14164)
MAP2K2 (human) = MAP2K2 (human) (UniProt P36507)
MAPKAPK3 (human) = MAPKAPK3 (human) (UniProt Q16644)
MAPKAPK5 (human) = MAPKAPK5 (human) (UniProt Q8IW41)
MAPKAPK5 (human), sequence (Q8IW41 whole entry, looked up): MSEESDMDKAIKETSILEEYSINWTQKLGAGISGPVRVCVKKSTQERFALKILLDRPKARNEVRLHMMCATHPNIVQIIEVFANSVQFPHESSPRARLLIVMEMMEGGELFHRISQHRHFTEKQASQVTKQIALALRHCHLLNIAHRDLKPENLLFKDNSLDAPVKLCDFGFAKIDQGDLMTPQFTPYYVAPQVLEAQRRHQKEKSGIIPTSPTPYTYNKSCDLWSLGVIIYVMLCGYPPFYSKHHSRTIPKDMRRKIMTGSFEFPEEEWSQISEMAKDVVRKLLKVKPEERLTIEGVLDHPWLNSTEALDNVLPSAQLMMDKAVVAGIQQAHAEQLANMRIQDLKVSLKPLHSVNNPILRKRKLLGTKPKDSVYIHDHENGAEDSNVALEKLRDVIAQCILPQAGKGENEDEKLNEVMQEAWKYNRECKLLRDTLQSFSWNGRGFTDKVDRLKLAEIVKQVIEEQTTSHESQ

MARK4 (human) = MARK4 (human) (UniProt Q96L34)
MELK (human) = MELK (human) (UniProt Q14680)
MST1R (human) = MST1R (human) (UniProt Q04912)
NEK6 (human) = NEK6 (human) (UniProt Q9HC98)
NEK7 (human) = NEK7 (human) (UniProt Q8TDX7)
NEK7 (human), sequence (Q8TDX7 whole entry, looked up): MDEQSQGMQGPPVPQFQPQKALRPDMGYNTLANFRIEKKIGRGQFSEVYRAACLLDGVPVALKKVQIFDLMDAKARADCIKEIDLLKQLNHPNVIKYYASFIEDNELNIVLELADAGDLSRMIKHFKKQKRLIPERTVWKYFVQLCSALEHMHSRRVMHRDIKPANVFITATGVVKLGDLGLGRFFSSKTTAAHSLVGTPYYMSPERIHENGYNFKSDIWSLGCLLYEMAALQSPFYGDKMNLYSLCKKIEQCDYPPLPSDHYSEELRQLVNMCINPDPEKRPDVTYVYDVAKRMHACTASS

PAK2 (human) = PAK2 (human) (UniProt Q13177)
PBK (human) = PBK (human) (UniProt Q96KB5)
PHKG2 (human) = PHKG2 (human) (UniProt P15735)
PHKG2 (human), sequence (P15735 whole entry, looked up): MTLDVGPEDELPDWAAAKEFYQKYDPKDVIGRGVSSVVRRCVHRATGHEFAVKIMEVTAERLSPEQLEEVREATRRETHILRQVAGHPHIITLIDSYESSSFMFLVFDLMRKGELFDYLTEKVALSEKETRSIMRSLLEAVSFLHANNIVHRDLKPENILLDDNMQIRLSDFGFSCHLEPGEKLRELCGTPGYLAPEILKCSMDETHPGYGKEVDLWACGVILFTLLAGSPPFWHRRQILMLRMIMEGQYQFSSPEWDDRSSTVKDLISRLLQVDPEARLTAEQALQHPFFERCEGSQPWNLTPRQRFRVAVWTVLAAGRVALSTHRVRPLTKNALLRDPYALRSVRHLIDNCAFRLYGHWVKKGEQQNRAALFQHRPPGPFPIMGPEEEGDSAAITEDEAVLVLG

PRKCB1 (human) = PRKCB1 (human) (UniProt P05771)
PRKCG (human) = PRKCG (human) (UniProt P05129)
PRKCH (human) = PRKCH (human) (UniProt P24723)
PRKCH (human), sequence (P24723 whole entry, looked up): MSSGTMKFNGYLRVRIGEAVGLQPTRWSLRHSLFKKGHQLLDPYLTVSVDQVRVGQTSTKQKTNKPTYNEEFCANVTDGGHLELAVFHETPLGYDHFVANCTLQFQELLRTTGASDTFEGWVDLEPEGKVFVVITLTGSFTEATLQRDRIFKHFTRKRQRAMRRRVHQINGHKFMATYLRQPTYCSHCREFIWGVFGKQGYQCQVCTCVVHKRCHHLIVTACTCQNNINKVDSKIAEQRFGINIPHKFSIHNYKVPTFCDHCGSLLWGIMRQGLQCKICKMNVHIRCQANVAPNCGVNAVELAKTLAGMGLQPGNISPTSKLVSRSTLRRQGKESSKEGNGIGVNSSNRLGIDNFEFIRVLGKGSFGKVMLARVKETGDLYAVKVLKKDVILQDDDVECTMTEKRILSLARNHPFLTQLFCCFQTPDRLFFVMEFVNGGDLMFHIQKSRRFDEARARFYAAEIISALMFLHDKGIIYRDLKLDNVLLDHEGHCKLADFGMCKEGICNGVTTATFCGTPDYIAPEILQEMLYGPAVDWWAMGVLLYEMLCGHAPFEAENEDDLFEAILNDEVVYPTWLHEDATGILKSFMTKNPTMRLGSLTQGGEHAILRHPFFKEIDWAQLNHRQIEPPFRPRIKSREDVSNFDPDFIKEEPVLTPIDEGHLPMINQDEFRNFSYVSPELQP

PRKD3 (human) = PRKD3 (human) (UniProt O94806)
PRKG2 (human) = PRKG2 (human) (UniProt Q13237)
ROCK1 (human) = ROCK1 (human) (UniProt Q13464)
[1] = tested on: SGK1 (human), O00141 [S422D]
SRPK1 (human) = SRPK1 (human) (UniProt Q96SB4)
SRPK2 (human) = SRPK2 (human) (UniProt P78362)
SRPK2 (human), sequence (P78362 whole entry, looked up): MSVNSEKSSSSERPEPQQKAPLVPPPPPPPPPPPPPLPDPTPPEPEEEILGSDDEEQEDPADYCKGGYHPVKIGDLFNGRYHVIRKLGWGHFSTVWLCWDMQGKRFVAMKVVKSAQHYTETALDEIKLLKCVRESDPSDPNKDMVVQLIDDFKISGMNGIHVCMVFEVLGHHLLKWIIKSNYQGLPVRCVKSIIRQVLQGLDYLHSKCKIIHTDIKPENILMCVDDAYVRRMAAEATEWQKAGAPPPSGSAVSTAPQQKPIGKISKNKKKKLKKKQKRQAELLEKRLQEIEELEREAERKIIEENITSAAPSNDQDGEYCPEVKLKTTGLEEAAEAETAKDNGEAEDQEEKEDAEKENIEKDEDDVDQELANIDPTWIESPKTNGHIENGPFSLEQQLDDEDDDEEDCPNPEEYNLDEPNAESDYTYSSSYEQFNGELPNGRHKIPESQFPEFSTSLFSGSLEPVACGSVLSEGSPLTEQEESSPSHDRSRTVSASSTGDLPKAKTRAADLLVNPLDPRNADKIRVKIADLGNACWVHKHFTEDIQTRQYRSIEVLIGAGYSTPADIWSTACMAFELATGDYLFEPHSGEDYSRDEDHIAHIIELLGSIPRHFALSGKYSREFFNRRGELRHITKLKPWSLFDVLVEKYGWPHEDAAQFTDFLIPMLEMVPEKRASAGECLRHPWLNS

TSSK1B (human) = TSSK1B (human) (UniProt Q9BXA7)
HIPK2 (human) = HIPK2 (human) (UniProt Q9H2X6)

ABL1 (human), sequence (P00519 whole entry, looked up): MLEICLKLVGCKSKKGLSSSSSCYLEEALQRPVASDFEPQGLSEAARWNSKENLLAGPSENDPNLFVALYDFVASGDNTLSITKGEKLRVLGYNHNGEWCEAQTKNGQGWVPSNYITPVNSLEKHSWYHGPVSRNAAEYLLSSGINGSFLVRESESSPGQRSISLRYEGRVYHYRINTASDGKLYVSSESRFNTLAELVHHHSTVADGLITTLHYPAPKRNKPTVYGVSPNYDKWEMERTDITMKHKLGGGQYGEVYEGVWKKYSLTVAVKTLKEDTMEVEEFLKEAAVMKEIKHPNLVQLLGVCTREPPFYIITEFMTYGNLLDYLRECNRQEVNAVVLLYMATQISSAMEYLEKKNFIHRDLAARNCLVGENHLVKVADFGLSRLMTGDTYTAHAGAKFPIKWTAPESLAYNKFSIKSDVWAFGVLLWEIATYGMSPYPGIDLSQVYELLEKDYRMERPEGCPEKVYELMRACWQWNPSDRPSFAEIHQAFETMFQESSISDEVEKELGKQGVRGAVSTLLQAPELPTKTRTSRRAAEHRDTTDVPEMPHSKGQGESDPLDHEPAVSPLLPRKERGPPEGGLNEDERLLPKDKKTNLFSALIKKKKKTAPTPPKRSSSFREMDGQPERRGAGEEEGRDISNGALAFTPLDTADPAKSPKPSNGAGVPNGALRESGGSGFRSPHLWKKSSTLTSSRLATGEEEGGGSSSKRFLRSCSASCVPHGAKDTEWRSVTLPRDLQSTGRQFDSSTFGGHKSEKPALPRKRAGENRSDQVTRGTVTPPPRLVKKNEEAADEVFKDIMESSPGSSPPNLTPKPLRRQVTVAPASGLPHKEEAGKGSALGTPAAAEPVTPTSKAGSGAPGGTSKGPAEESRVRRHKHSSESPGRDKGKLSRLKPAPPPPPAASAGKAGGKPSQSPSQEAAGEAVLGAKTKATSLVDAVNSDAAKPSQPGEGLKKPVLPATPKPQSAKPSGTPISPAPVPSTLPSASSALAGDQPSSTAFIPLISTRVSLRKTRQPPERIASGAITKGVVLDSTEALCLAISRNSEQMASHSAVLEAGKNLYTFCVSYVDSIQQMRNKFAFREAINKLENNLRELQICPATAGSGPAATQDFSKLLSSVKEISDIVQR

For `N#Cc1c(NC(=O)c2cccc3ccccc23)sc2c1CCCC2`, the residual activity (ABL1 (human)) was 103%, the residual activity (AURKA (human)) was 101% and the residual activity (CAMK4 (human)) was 108%. It also gave a residual activity (CAMKK1 (human)) of 109%, a residual activity (CDK1 CCNA2 (human)) of 92.1% and a residual activity (CDK5 CDK5R1 p25 (human)) of 100%. It also gave a residual activity (CHEK2 (human)) of 98.5%, a residual activity (CSNK1G3 (human)) of 104% and a residual activity (DAPK3 (human)) of 110%. It also gave a residual activity (DYRK1A (human)) of 96.7%, a residual activity (EPHA1 (human)) of 103% and a residual activity (EPHA3 (human)) of 103%. It also gave a residual activity (FGFR3 (human)) of 101%, a residual activity (FLT1 (human)) of 84.4% and a residual activity (FLT3 (human)) of 111%. It also gave a residual activity (FRK (human)) of 104%, a residual activity (GRK4 (human)) of 110% and a residual activity (GRK5 (human)) of 98.2%. The residual activity (GSK3A (human)) was 97.2%, the residual activity (IKBKE (human)) was 94.3% and the residual activity (MAP2K2 (human)) was 106%. The residual activity (MAPKAPK3 (human)) was 102%, the residual activity (MAPKAPK5 (human)) was 96.6% and the residual activity (MARK4 (human)) was 101%. It also gave a residual activity (MELK (human)) of 83.3%, a residual activity (MST1R (human)) of 92.5% and a residual activity (NEK6 (human)) of 101%. The residual activity (NEK7 (human)) was 89.2%, the residual activity (PAK2 (human)) was 103% and the residual activity (PBK (human)) was 116%. It also gave a residual activity (PHKG2 (human)) of 101%, a residual activity (PRKCB1 (human)) of 90.9% and a residual activity (PRKCG (human)) of 95.4%. The residual activity (PRKCH (human)) was 97.9%, the residual activity (PRKD3 (human)) was 97.7% and the residual activity (PRKG2 (human)) was 111%. The residual activity (ROCK1 (human)) was 96.3%, the residual activity [1] was 108% and the residual activity (SRPK1 (human)) was 102%. For the same compound, the residual activity (SRPK2 (human)) was 99.2% and the residual activity (TSSK1B (human)) was 94.9%.
Compound `COc1cc2c(N3CCN(C(=O)Nc4ccc(OC(C)C)cc4)CC3)ncnc2cc1OCCCN1CCCCC1` has a residual activity (ABL1 (human)) of 104%, a residual activity (AURKA (human)) of 108% and a residual activity (CAMK4 (human)) of 99.3%. For the same compound, the residual activity (CAMKK1 (human)) was 90.3%, the residual activity (CDK1 CCNA2 (human)) was 96% and the residual activity (CDK5 CDK5R1 p25 (human)) was 104%. It also gave a residual activity (CHEK2 (human)) of 100%, a residual activity (CSNK1G3 (human)) of 95% and a residual activity (DAPK3 (human)) of 101%. It also gave a residual activity (DYRK1A (human)) of 104%, a residual activity (EPHA1 (human)) of 96.1% and a residual activity (EPHA3 (human)) of 94.7%. It also gave a residual activity (FGFR3 (human)) of 93.2%, a residual activity (FLT1 (human)) of 99.4% and a residual activity (FRK (human)) of 101%. For the same compound, the residual activity (GRK4 (human)) was 106%, the residual activity (GRK5 (human)) was 106% and the residual activity (GSK3A (human)) was 105%. The residual activity (HIPK2 (human)) was 91.8%, the residual activity (IKBKE (human)) was 96.2% and the residual activity (MAP2K2 (human)) was 116%. For the same compound, the residual activity (MAPKAPK3 (human)) was 103%, the residual activity (MAPKAPK5 (human)) was 91.9% and the residual activity (MARK4 (human)) was 98.7%. It also gave a residual activity (MELK (human)) of 87.9%, a residual activity (MST1R (human)) of 99.2% and a residual activity (NEK6 (human)) of 87.4%. It also gave a residual activity (NEK7 (human)) of 93.4%, a residual activity (PAK2 (human)) of 112% and a residual activity (PBK (human)) of 98%. For the same compound, the residual activity (PHKG2 (human)) was 98.9%, the residual activity (PRKCB1 (human)) was 98.4% and the residual activity (PRKCG (human)) was 90.9%. For the same compound, the residual activity (PRKCH (human)) was 108%, the residual activity (PRKD3 (human)) was 97.3% and the residual activity (PRKG2 (human)) was 105%. It also gave a residual activity (ROCK1 (human)) of 102%, a residual activity [1] of 123% and a residual activity (SRPK1 (human)) of 98.2%. It also gave a residual activity (SRPK2 (human)) of 103% and a residual activity (TSSK1B (human)) of 96.8%.
